These results are taken from patent publication US8569229B2, “Compositions and methods which modulate G-protein signaling for the treatment of inflammatory disorders such as asthma and allergic conjunctivitis” (The Children's Hospital of Philadelphia, priority 2008, dated 2013).

One test relates to ERK1/2. The test is described as follows: Immunoblot analysis of ERK1/2 phosphorylation in ASM cells. It counts as cell-based, human. As to conditions: for effect on PGE2-induced phosphorylation of ERK1/2: PGE2 100 nM, 30 min; for effect on isoproterenol (β2AR agonist)-induced phosphorylation of ERK1/2: isoproterenol 10 μM, 20 min. The source says: (§1) Detection of PDE4D5 mRNA transcripts: Total RNA was extracted from the cultured ASM cells using the TRIzol method (Invitrogen), and cDNAs were isolated by RT-PCR using the SuperScript First Strand Synthesis System kit from Invitrogen, with the following oligonucleotide primer sets (Integrated DNA Technologies): for PDE4D5, 5′-[…]-3′ (forward; SEQ ID NO: 2) and 5′-[…]-3′ (reverse; SEQ ID NO: 3); and for β-actin, 5′-[…]-3′ (forward; SEQ ID NO: 4) and 5′-[…]-3′ (reverse; SEQ ID NO: 5). The reaction volume was 20 μl and cycling conditions used were 35 cycles of 30 sec denaturation at 95° C., followed by 30 sec annealing at 60° C. and elongation at 72° C. for 30 sec. Ex-Tag (Takara Biotechnology) was used as DNA polymerase. […] Following protein extraction and the addition of gel-loading buffer, the extracts were loaded on a 10% SDS-PAGE gel for immunoblotting after transfer to a PVDF membrane. The membranes were then incubated overnight with monoclonal mouse anti-human primary antibodies directed against phospho-CREB and -ATF1, phospho-ERK1/2, or α-actin, and levels were detected by ECL after a 1-hr incubation with a 1:2,000 dilution of HRP-conjugated rabbit anti-mouse secondary antibody, followed by exposure to autoradiography film. The protein band intensities were quantified by densitometry. siRNA-mediated knockdown of PKA: ASM cells were seeded into 6-well plates and, at ˜40% confluency, the medium was replaced with the reduced serum-containing medium, Opti-MEM (Invitrogen). The cells were then transfected twice during a 24-hr interval with two pools of three siRNA duplexes, each pool targeted against the human PKAα or PKAγ catalytic subunits (Santa Cruz Biotechnology; sc-36240 and sc-36236, respectively), or with a non-targeted control (scrambled) siRNA duplex, using Oligofectamine (Invitrogen) as the transfection agent. The pools of siRNAs were applied to each well at a final concentration of 100 nM for each siRNA preparation. […] Transfection of ASM cells with adeno-βARK-ct: Adenovirus (adeno)-βARK-ct, an adenovirus vector encoding the βARK1 carboxyl-terminal domain which blocks Gβγ signaling (25,26), and adeno-β-gal, an adenovirus vector expressing lacZ as a negative control, were constructed using the AdenoX adenovirus construction kit (BD-Clontech). Recombinant plaques were isolated and propagated in HEK293 cells (Invitrogen), with viral purification using the cesium chloride gradient method, and viral titer detected by plaque assay. The ASM cells were transfected with either of the adenoviral vectors at a multiplicity of infection (MOI) of 100, and experiments were conducted at 24 hr following adenoviral tranfections. Pharmacodynamic studies of constrictor and relaxation responsiveness in rabbit ASM tissues: Following initial sedation and subsequent general anesthesia with intramuscular injections of xylazine (10 mg/kg) and ketamine (50 mg/kg), respectively, rabbits were sacrificed with an intravenously administered overdose of sodium pentobarbital (100 mg/kg). As described previously (16), the tracheae were excised via open thoracotomy, the loose connective tissue and epithelium were scraped and removed, and the tracheae were divided into 8 ring segments, each of 6-8 mm in length. […] After these incubations, the tissues were placed in organ baths containing modified Krebs-Ringer solution aerated with 5% CO2 in oxygen (pH of 7.35-7.40), and attached to force transducers to continuously monitor isometric tension. […] The constrictor and relaxation dose-response curves were analyzed with respect to each tissue's maximal isometric contractile force (Tmax) to ACh and maximal relaxation response (Rmax) to isoproterenol from the initial level of active cholinergic contraction. Statistical analyses: Results are expressed as mean±SE values. Comparisons between groups were made using the Student's t-test (two-tailed) or ANOVA with Tukey's post-test analysis, where appropriate.

Another test relates to PDE4D5 mRNA. The test is described as follows: Detection of PDE4D5 mRNA transcripts by RT-PCR in ASM cells. It counts as cell-based, human. As to conditions: 6 hr; for effect of pretreatment on PGE2-induced upregulated PDE4D5 mRNA expression: PGE2 100 nM; for effect of pretreatment on β2AR agonist (isoproterenol)-induced upregulated PDE4D5 mRNA expression: isoproterenol 10 μM.
From the text: as §1

A further test relates to CREB/ATF1. The test can be described thus: Immunoblot analysis of CREB/ATF1 phosphorylation in ASM cells. Type of test: cell-based, human. As to conditions: PGE2 100 nM, 30 min.
From the text: as §1
For orientation: A western blot detects proteins with antibodies after separation by electrophoresis.

Test [1] relates to human ASM cells. The test can be described thus: Assay of cAMP PDE activity in ASM cell lysates. As to conditions: for effect of the agent alone on basal PDE activity: no cAMP-elevating agent. It counts as cell-based. The procedure: Assay of cAMP PDE activity: Levels of cAMP PDE activity were assayed in ASM cell lysates using a colorimetric, non-radioactive enzymatic assay kit from Biomol, as per the manufacture's protocol. PDE activity was determined following exposure of ASM cells for 24 hr to either vehicle alone (control), PGE2 (100 μM), or forskolin (100 μM) in the absence and presence of pretreatment with rolipram (10 μM), cycloheximide (100 μM), actinomycin D (4 μM), or H89 (10 μM).
In each case, the measured levels of PDE activity were standardized to the protein content in the cell extracts.

For test [2], the system named is human ASM cells. The test can be described thus: Assay of cAMP PDE activity in ASM cell lysates. It counts as cell-based. As to conditions: for effect of pretreatment on PGE2- and forskolin-induced increases in PDE activity: PGE2 or forskolin x 24 hr (100 μM in text, 100 nM in legends); for effect of pretreatment on salmeterol- and isoproterenol-induced increase in PDE activity: salmeterol or isoproterenol 10 μM x 24 hr; for effect of pretreatment on PGE2-induced increase in PDE activity: PGE2 100 nM x 24 hr, peptides 30 μM (Example III).

“Also recorded” adds a separate entry of the source. Numbered stars: 1 amine (or outer) side, 2 acyl side, 3 side chain; on linkers, the order of the positions; unused ones are H or OH. Bridge positions count the residues as written; N and C are the ends. Square brackets hold non-standard residues; d marks the D form. Ends that are not written are not given here. Peptide text beside a SMILES is read from it. I, II: the chains in the order shown. Actinocin(9to1) = Cc1c2oc3c(C)ccc(C(=O)[*:1])c3nc-2c(C(=O)[*:2])c(N)c1=O; NMeV = CN[C@H](C(=O)O)C(C)C; Sar = CNCC(=O)O

As for `COC(=O)[C@H](CC(C)C)NC(=O)c1ccc(NC[C@@H](N)CS)cc1-c1cccc2ccccc12` [GGTI-298], in the test on ERK1/2, the “effect on PGE2-induced phosphorylation of ERK1/2” value is given as “did not exhibit attenuated; also recorded: no effect” and the “effect on isoproterenol (β2AR agonist)-induced phosphorylation of ERK1/2” value was “did not exhibit attenuated; also recorded: no effect”.

Regarding `O=C1Nc2ccc(I)cc2/C1=C/c1cc(Br)c(O)c(Br)c1` [GW5074], in the test with ERK1/2, the “effect on PGE2-induced phosphorylation of ERK1/2” value is on record as “completely ablated; also recorded: prevents” and the “effect on isoproterenol (β2AR agonist)-induced phosphorylation of ERK1/2” value is recorded as “completely abrogated; also recorded: prevents”.

As for `Oc1ccc(-c2nc(-c3ccncc3)c(-c3ccc(F)cc3)[nH]2)cc1` [SB202190], in the test with PDE4D5 mRNA, the “effect of pretreatment on PGE2-induced upregulated PDE4D5 mRNA expression” value is “neither the p38 MAPK nor JNK inhibitor (lanes 5 and 6, respectively) had an attenuating effect”; the “effect of pretreatment on β2AR agonist (isoproterenol)-induced upregulated PDE4D5 mRNA expression” value (shortened to “effect of pretreatment on β2AR agonist”) is reported as “unaffected; also recorded: no effect”. Also, the “effect on PGE2-induced phosphorylation of CREB/ATF1” value in the test with CREB/ATF1 is “neither PGE2-induced phosphorylation of ERK1/2 nor CREB/ATF was affected”. Moreover, in the test with ERK1/2, the “effect on PGE2-induced phosphorylation of ERK1/2” value is given as “neither PGE2-induced phosphorylation of ERK1/2 nor CREB/ATF was affected”.

As to `Oc1c2ccccc2c2c3c(cccc13)N=N2` [SP600125], the “effect of pretreatment on β2AR agonist” value in the test with PDE4D5 mRNA is “no effect”.

Take `CN(C)S(=O)(=O)c1ccc2c(c1)/C(=C/c1cc3c([nH]1)CCCC3)C(=O)N2` [SU6656]: in the test on PDE4D5 mRNA, the “effect of pretreatment on PGE2-induced upregulated PDE4D5 mRNA expression” value is on record as “ablated” and the “effect of pretreatment on β2AR agonist” value is “prevented; also recorded: ablated”. Besides, in the test with PDE4D5 mRNA (listed as Src inhibitor), the “effect of pretreatment on PGE2-induced upregulated PDE4D5 mRNA expression” value is on record as “markedly inhibited”. In addition, the “effect on PGE2-induced phosphorylation of CREB/ATF1” value in the test with CREB/ATF1 was “largely prevented; also recorded: ablated”. Also, the “effect on PGE2-induced phosphorylation of ERK1/2” value in the test with ERK1/2 is given as “largely prevented; also recorded: ablated”.

On to `Cc1c2oc3c(C)ccc(C(=O)N[C@@H]4C(=O)N[C@H](C(C)C)C(=O)N5CCC[C@H]5C(=O)N(C)CC(=O)N(C)[C@@H](C(C)C)C(=O)O[C@@H]4C)c3nc-2c(C(=O)N[C@@H]2C(=O)N[C@H](C(C)C)C(=O)N3CCC[C@H]3C(=O)N(C)CC(=O)N(C)[C@@H](C(C)C)C(=O)O[C@@H]2C)c(N)c1=O` [actinomycin D] (I: T[dV]P[Sar][NMeV] / II: T[dV]P[Sar][NMeV]; ester I:1-I:C, II:1-II:C; linker I:N-II:N via Actinocin(9to1)), for which the “effect of the agent alone on basal PDE activity” value in the test on human ASM cells [1] is “neither actinomycin D nor cycloheximide alone significantly affected”. Moreover, in the test with human ASM cells [2], the “effect of pretreatment on PGE2- and forskolin-induced increases in PDE activity” value was “completely ablated”; the “effect of pretreatment on salmeterol- and isoproterenol-induced increase in PDE activity” value was “completely ablated”.

Take `C[C@@H]1C[C@@H]([C@H](O)CC2CC(=O)NC(=O)C2)C(=O)[C@@H](C)C1` [cycloheximide]: the “effect of the agent alone on basal PDE activity” value in the test with human ASM cells [1] is reported as “neither actinomycin D nor cycloheximide alone significantly affected”. Moreover, in the test with human ASM cells [2], the “effect of pretreatment on PGE2- and forskolin-induced increases in PDE activity” value is recorded as “completely ablated”; the “effect of pretreatment on salmeterol- and isoproterenol-induced increase in PDE activity” value is “completely ablated”.

Take `C=C[C@@]1(C)CC(=O)[C@]2(O)[C@@]3(C)[C@@H](O)CCC(C)(C)[C@@H]3[C@H](O)[C@H](OC(C)=O)[C@@]2(C)O1` [forskolin]: in the test with human ASM cells [1] (cells incubated 24 hr with the agent (PGE2 or forskolin 100 μM; salmeterol or isoproterenol 10 μM)), the “PDE activity, fold above control” value is listed as 4.01 fold.

With “MPS- Gαi2 (AAVALLPAVLLALLAKNNLKDCGLF; also: MPS attached) [Gαi2 blocking peptide]”, the “effect of pretreatment on PGE2-induced increase in PDE activity” value in the test on human ASM cells [2] is listed as “only a partial inhibitory effect”; in the test on human ASM cells [2] (listed as anti-Gαi2 inhibitory peptide), “only exerts a partial inhibitory effect”.
